Patent US20250161285A1, “BACTERIAL BIOFILM INHIBITORS” (THE RESEARCH INSTITUTE AT NATIONWIDE CHILDREN'S HOSPITAL, priority 2022, published 2025)

What was measured:
[1] = system: S. Typhimurium ATCC 14028 (JSG210) biofilms; assay: Biofilm inhibition assay (crystal violet staining); format: cell-based, Salmonella enterica serovar Typhimurium; details: for IC50: inhibition of S. Typhimurium biofilm formation, compound present 24 h, crystal violet OD570, mean ± standard deviation; for fold improvement of IC50 versus comparator: 6a vs 4c, 6b vs 4d, 6g vs 4c and 4d, 8i vs 8b; for anti-biofilm activity (inhibition and dispersion) in words: S. Typhimurium biofilms in vitro
Experimental: Inhibition of biofilm formation is assessed by growing bacteria in a 96-well plate in the absence (control) or presence of test compounds. After 24 hours, the wells are washed to remove planktonic bacteria, and the remaining surface attached bacteria (biofilm) are stained with crystal violet (CV). The wells are then washed again to remove excess CV, and the remaining CV is solubilized with a solution of acetic acid and then quantified by spectrophotometry at 570 nm. A dose response curve is then constructed from which an IC50 value is determined.
(§1) Salmonella biofilm growth and crystal violet staining. […] For biofilm assays, individual bacterial colonies were picked and used to inoculate LB broth for overnight liquid cultures, which were grown at 37° C. with aeration using a rotating drum. […] Biofilm plates were then submerged in dH2O to wash away any remaining non-adherent bacteria and heat fixed (1h, 60° C.). Biofilms were then stained with a 33% crystal violet solution (6 mL PBS, 3.3 mL crystal violet, 333 μL methanol, 333 μL isopropanol) for 5 min. and washed twice by submerging in dH2O before releasing the bound dye with 33% glacial acetic acid. Biofilm growth was then quantified by measuring the optical density of the solubilized dye at 570 nm using a spectrophotometer (Molecular Devices, SpectraMax M5).
(§2) Biofilm Inhibition and Dispersion Assays and IC50/EC50 Determination. […] Biofilms were then grown as described above for a total of 24 h prior to CV staining. […] Biofilms were then incubated for an additional 24 h in the presence of compounds prior to CV staining. IC50/EC50 values were calculated by plotting normalized compound activity (percent biofilm formed and percent remaining, respectively) as a function of log10 compound concentration and fitting a dose response curve (log[inhibitor] vs. normalized response, variable slope).

[2] = system: S. Typhimurium ATCC 14028 (JSG210) biofilms; assay: Biofilm dispersion assay on pre-formed biofilms (crystal violet staining); format: cell-based, Salmonella enterica serovar Typhimurium; details: for EC50: 50% dispersion of biofilms established 24 h, then 24 h with compound, crystal violet OD570, mean ± standard deviation; for fold improvement of dispersion activity (EC50) versus comparator: 4d vs 1, 6g vs 4c and 4d, lead compounds vs parent compound
Experimental: as §1, §2

Compound | IC50 [1] | EC50 [2] | further results
CN(Cc1ccsc1)CC1CCN(CCc2cc(Br)cc(Br)c2)CC1 [Compound 6f] | 3.4 µM | 42 µM | 
CN(Cc1ccsc1)CC1CCN(Cc2ccc(F)c(F)c2)CC1 [Compound 7o] | 7.2 ± 1.8 µM | 3800 ± 204 µM | 
CN(Cc1ccsc1)CC1CCN(CCc2ccc(F)c(F)c2)CC1 [Compound 6g] | 3 ± 0.2 µM | 87 ± 13 µM | fold improvement of IC50 versus comparator [1]: over two-fold; fold improvement of dispersion activity (EC50) versus comparator [2]: over two-fold
CN(Cc1cccc(Cl)c1)CC1CCN(CCc2ccc(Cl)c(Cl)c2)CC1 [Compound 3.2f] | 2.3 µM | 21 µM | 
CN(Cc1ccsc1)CC1CCN(CCc2cc(F)cc(F)c2)CC1 [Compound 4e] | > 200 µM | > 12000 µM | anti-biofilm activity (inhibition and dispersion) in words [1]: inactive
CN(Cc1ccsc1)CC1CCN(Cc2ccc(F)cc2)CC1 [Compound 7j] | 12.9 ± 1.4 µM | 443 ± 52 µM | 
CN(Cc1ccsc1)CC1CCN(CCc2cccc3ccccc23)CC1 [Compound 8k] | 2.5 µM | 28 ± 5 µM | 
CN(Cc1cccc2ccccc12)CC1CCN(CCc2ccccc2F)CC1 [Compound 3.4a] | 4.2 ± 2.9 µM | 12 ± 8 µM | 
CN(Cc1ccc(Cl)c(Cl)c1)CC1CCN(CCc2ccc(Cl)c(Cl)c2)CC1 [Compound 3.2h] | 0.96 µM | 17 µM | 
CN(Cc1ccsc1)CC1CCN(Cc2cccc(Br)c2)CC1 [Compound 7i] | 6.5 ± 2.9 µM | 142 ± 9 µM | 
CN(Cc1ccccc1I)CC1CCN(CCc2ccc(Cl)c(Cl)c2)CC1 [Compound 3.2d] | 3.4 µM | 26 µM | 
CN(Cc1ccsc1)CC1CCN(CCCc2ccccc2F)CC1 [Compound 6l] | 11.5 ± 2.7 µM | 221 ± 17 µM | 
CN(Cc1cccc(Cl)c1Cl)CC1CCN(CCc2ccccc2F)CC1 [Compound 3.1l] | 5.6 µM | 43 µM | 
CN(Cc1ccccc1)CC1CCN(CCc2ccc(Cl)c(Cl)c2)CC1 [Compound 3.2a] | 0.59 µM | 35 µM | 
CN(Cc1ccsc1)CC1CCN(CCCc2ccccc2Cl)CC1 [Compound 6m] | 5.4 ± 1.2 µM | 59 ± 4 µM | 
CN(Cc1ccsc1)CC1CCN(CCc2cccc(Cl)c2)CC1 [Compound 6a] | 2 µM | 135 ± 12 µM | fold improvement of IC50 versus comparator [1]: over two-fold
CN(Cc1ccsc1)CC1CCN(Cc2cccc(Cl)c2Cl)CC1 [Compound 7r] | 2.7 ± 1.4 µM | 70 ± 8 µM | 
CN(Cc1ccccc1I)CC1CCN(CCc2ccc(Cl)cc2Cl)CC1 [Compound 3.3d] | 10.1 ± 4.5 µM | > 50 µM | 
CN(Cc1ccsc1)CC1CCN(Cc2ccccc2Cl)CC1 [Compound 6j] | 2.7 ± 0.7 µM | 1810 ± 176 µM | 
CN(Cc1ccncc1)CC1CCN(CCc2ccccc2F)CC1 [Compound 3.8c] | > 20 µM | > 50 µM | 
CN(Cc1ccsc1)CC1CCN(CCc2cccc(Br)c2)CC1 [Compound 6c] | 3.6 µM | 83 ± 6 µM | 
CN(Cc1ccsc1)CC1CCN(CCc2ccccc2Br)CC1 [Compound 4b] | 7.2 ± 1.6 µM | 308 ± 11 µM | 
COc1ccccc1CCN1CCC(CN(C)Cc2ccsc2)CC1 [Compound 4f] | 16.9 ± 5.2 µM | 11760 ± 77 µM | 
CN(Cc1ccsc1)CC1CCN(CCc2ccccc2Cl)CC1 [Compound 4a] | 6 ± 1.4 µM | 232 ± 6 µM | 
CN(Cc1ccsc1)CC1CCN(CCc2ccc(Br)cc2)CC1 [Compound 6d] | 3 ± 0.7 µM | 57 ± 4 µM | 
CN(Cc1ccsc1)CC1CCN(Cc2ccccc2I)CC1 [Compound 8d] | 5.4 ± 0.5 µM | 79 ± 5 µM | 

Compound | IC50 [1] | EC50 [2] | further results
CN(Cc1ccsc1)CC1CCN(Cc2ccc(Cl)cc2)CC1 [Compound 7k] | 5.9 ± 2.8 µM | 934 ± 26 µM | 
CN(Cc1ccsc1)CC1CCN(CCc2cccc(F)c2)CC1 [Compound 4c] | 6.9 ± 0.1 µM | 388 ± 19 µM | 
CN(Cc1ccsc1)CC1CCN(Cc2ccc(I)cc2)CC1 [Compound 8f] | 5.7 ± 2.9 µM | 77 ± 3 µM | 
CN(Cc1ccsc1)CC1CCN(CCc2cccc(I)c2)CC1 [Compound 8b] | 4 ± 0.7 µM | 44 ± 2 µM | 
CN(Cc1ccc(F)cc1)CC1CCN(CCc2ccccc2F)CC1 [Compound 3.1i] | 5.5 µM | > 75 µM | 
CN(Cc1ccsc1)CC1CCN(Cc2cccc(I)c2)CC1 [Compound 8e] | 10 ± 4.5 µM | 92 ± 3 µM | 
CN(Cc1ccsc1)CC1CCN(Cc2ccccc2F)CC1 [Compound 6i] | 8.8 ± 0.8 µM | 125 ± 6 µM | 
CN(Cc1ccsc1)CC1CCN(Cc2c(F)cccc2F)CC1 [Compound 7n] | > 200 µM | > 12000 µM | 
CN(Cc1ccccc1I)CC1CCN(CCc2ccccc2F)CC1 [Compound 3.1f] | 4.4 µM | 53 µM | 
CN(Cc1ccsc1)CC1CCN(Cc2cccc(F)c2F)CC1 [Compound 7t] | 146 µM | 870 ± 79 µM | 
CN(Cc1cccc(Cl)c1)CC1CCN(CCc2ccccc2F)CC1 [Compound 3.1h] | 5.6 µM | > 75 µM | 
CN(Cc1ccsc1)CC1CCN(Cc2ccccc2C(F)(F)F)CC1 [Compound 7u] | 20.9 µM | 140 ± 39 µM | 
Cc1ccccc1CN(C)CC1CCN(CCc2ccccc2F)CC1 [Compound 3.1b] | 4.4 µM | > 75 µM | 
Cc1ccccc1CCN1CCC(CN(C)Cc2ccsc2)CC1 [Compound 8g] | 6.3 ± 2.3 µM | 247 ± 11 µM | 
CN(Cc1ccccn1)CC1CCN(CCc2ccccc2F)CC1 [Compound 3.8a] | > 20 µM | > 50 µM | 
CN(Cc1ccsc1)CC1CCN(CCc2cccc(-c3ccccc3)c2)CC1 [Compound 8i] | 1.8 µM | 31 ± 4 µM | fold improvement of IC50 versus comparator [1]: two-fold
CN(Cc1ccsc1)CC1CCN(CCc2cc(Cl)cc(Cl)c2)CC1 [Compound 6e] | 1.6 µM | 45 µM | 
CN(Cc1ccccc1F)CC1CCN(CCc2ccccc2F)CC1 [Compound 3.1c] | 14.9 µM | > 75 µM | 
CN(Cc1cccc(Cl)c1Cl)CC1CCN(CCc2ccc(Cl)cc2Cl)CC1 [Compound 3.3i] | 6.5 ± 2.5 µM | 8 ± 4 µM | 
CNCC1CCN(CCc2ccccc2F)CC1 [Compound 5] |  |  | anti-biofilm activity (inhibition and dispersion) in words [1]: abrogated activity; IC50 ([1]; Salmonella enterica): > 200 µM; EC50 ([2]; Salmonella enterica): > 12000 µM
CN(Cc1ccsc1)CC1CCN(Cc2ccccc2)CC1 [Compound 6k] | 26.7 ± 1.2 µM | > 12000 µM | 
CN(Cc1ccsc1)CC1CCN(CCc2ccc(Cl)cc2Cl)CC1 [Compound 7c] | 2.5 ± 0.5 µM | 22 ± 2 µM | 
CN(Cc1ccsc1)CC1CCN(Cc2cc(Cl)ccc2Cl)CC1 [Compound 7p] | 15.8 ± 1.4 µM | 196 ± 27 µM | 
CN(Cc1ccccc1Br)CC1CCN(CCc2ccccc2F)CC1 [Compound 3.1e] | 6.5 µM | 42 µM | 
CN(Cc1ccsc1)CC1CCN(CCc2ccc(F)cc2)CC1 [Compound 4d] | 16.8 ± 3.4 µM | 235 µM | fold improvement of dispersion activity (EC50) versus comparator [2]: ca. 3.5
CN(Cc1ccsc1)CC1CCN(CCc2ccccc2)CC1 [Compound 4g] | 21.2 ± 2.6 µM | > 12000 µM | 
